Data published in US9629830B2, “EphA4 inhibitors as neuroprotective agents” (The Hong Kong University of Science and Technology, priority 2013, dated 2017).
Entries after “also recorded” stand apart in the source; their conditions may differ.

What follows are compounds tested against T1, EphA4 (Rattus norvegicus, UniProt D3ZZK3) (assay: Ephrin-A1-induced EphA4 cluster assay in cultured hippocampal neurons). Conditions: 30 μM.
T1 construct: endogenous in cells; host or cells: primary rat cortical neurons (A5), primary rat hippocampal neurons (A7)
T1 sequence (D3ZZK3 20-986): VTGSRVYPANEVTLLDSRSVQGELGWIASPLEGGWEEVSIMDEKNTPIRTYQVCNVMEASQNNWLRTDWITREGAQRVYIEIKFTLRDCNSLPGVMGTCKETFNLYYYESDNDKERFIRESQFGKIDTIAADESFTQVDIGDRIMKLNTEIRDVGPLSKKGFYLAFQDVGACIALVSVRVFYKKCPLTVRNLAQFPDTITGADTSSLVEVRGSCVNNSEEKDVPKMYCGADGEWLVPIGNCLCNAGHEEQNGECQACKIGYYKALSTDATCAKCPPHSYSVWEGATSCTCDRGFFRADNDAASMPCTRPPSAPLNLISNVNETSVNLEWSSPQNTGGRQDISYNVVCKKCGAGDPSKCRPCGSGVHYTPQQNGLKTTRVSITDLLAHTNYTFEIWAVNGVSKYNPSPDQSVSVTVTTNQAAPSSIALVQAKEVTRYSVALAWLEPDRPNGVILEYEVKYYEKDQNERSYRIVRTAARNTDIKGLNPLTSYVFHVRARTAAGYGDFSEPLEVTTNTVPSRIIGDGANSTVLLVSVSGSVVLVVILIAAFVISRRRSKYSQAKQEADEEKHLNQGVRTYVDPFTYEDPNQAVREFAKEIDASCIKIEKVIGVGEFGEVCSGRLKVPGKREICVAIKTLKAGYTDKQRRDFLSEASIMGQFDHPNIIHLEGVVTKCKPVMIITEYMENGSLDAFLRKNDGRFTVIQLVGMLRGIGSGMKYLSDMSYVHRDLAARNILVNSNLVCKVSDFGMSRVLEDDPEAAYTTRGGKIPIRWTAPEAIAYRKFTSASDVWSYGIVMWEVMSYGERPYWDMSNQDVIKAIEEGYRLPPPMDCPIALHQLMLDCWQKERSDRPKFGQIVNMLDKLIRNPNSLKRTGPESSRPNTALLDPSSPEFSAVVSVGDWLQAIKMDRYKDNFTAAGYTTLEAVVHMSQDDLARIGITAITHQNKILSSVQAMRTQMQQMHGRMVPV
Assay type: cell-based
Description: For EphA4 clustering, neurons were stained with anti-EphA4 and anti-Tau-1 antibodies. For the growth cone collapse assay, neurons were stained with Alexa Fluor 555-conjugated phalloidin (Molecular Probes) for filamentous actin and anti-Tau-1 antibody for axons. Collapsed growth cones were scored in a double-blinded manner. The experiments were repeated at least 3 times, and >50 neurons were analyzed for each experiment. Data are presented as mean±SEM.
Rat hippocampal neurons were seeded on 48-well plates coated with poly-D-lysine (50 μg/mL) at 6000 cells per well. Neurons were incubated with Neurobasal medium (Invitrogen) supplemented with 2% B27 (Invitrogen). […] Neurons were then immunostained with anti-EphA4 and anti-Tau-1 antibodies. The cellular imaging and quantification of EphA4 clusters was performed using IN Cell Analyzer 6000 high content assay system (GE Healthcare). EphA4 clusters were quantified by calculating the proportion of total area of EphA4 clusters on axons against Tau positive area. Statistical analysis was performed with one-way ANOVA followed by Newman-Keuls Multiple Comparison Test (Prism 5 GraphPad Software).

| SMILES | potency on EphA4 inhibition (EphA4 clusters) compared to Rhy (words) |
| --- | --- |
| CC[C@H]1CN2CC[C@]3(C(=O)N(CCCCCBr)c4ccccc43)[C@@H]2C[C@@H]1/C(=C\OC)C(=O)OC [RHY-23] | higher potency on EphA4 inhibition |
| CCC1CN2CCC3(C(=O)N(CCCCCCBr)c4ccccc43)C2CC1C(=COC)C(=O)OC (centres unmarked) [RHY-27] | higher potency on EphA4 inhibition |
| CCC1CN2CCC3(C(=O)N(CCCCCCCCCBr)c4ccccc43)C2CC1C(=COC)C(=O)OC (centres unmarked) [RHY-31] | higher potency on EphA4 inhibition |
| CCC1CN2CCC3(C(=O)N(CCCCCCCCBr)c4ccccc43)C2CC1C(=COC)C(=O)OC (centres unmarked) [RHY-34] | higher potency on EphA4 inhibition |
| CCC1CN2CCC3(C(=O)N(CCCCCCCBr)c4ccccc43)C2CC1C(=COC)C(=O)OC (centres unmarked) [RHY-35] | higher potency on EphA4 inhibition |
| CC[C@H]1CN2CC[C@]3(C(=O)N(CCCCCCCCOc4ccc(OC)c(OC)c4)c4ccccc43)[C@@H]2C[C@@H]1/C(=C\OC)C(=O)OC [RHY-37] | more potent effect on EphA4 inhibition than Rhy |
| CCC1CN2CCC3(C(=O)N(CCCCCCOc4ccc(OC)c(OC)c4)c4ccccc43)C2CC1C(=COC)C(=O)OC (centres unmarked) [RHY-39] | more potent effect on EphA4 inhibition than Rhy |
| CCC1CN2CCC3(C(=O)N(CCCCCCOC(=O)c4cc(OC)ccc4[N+](=O)[O-])c4ccccc43)C2CC1C(=COC)C(=O)OC (centres unmarked) [RHY-40] | more potent; also recorded: higher potency on EphA4 inhibition than Rhy |
| CC[C@H]1CN2CC[C@]3(C(=O)N(CCCCCCOc4ccc(OCc5ccccc5)cc4)c4ccccc43)[C@@H]2C[C@@H]1/C(=C\OC)C(=O)OC [RHY-42] | higher potency on EphA4 inhibition |
| CCC1CN2CCC3(C(=O)N(CCCCCCCOc4ccc(OC)c(OC)c4)c4ccccc43)C2CC1C(=COC)C(=O)OC (centres unmarked) [RHY-43] | more potent effect on EphA4 inhibition than Rhy |
| CCC1CN2CCC3(C(=O)N(CCCCCCCOc4ccc(OCc5ccccc5)cc4)c4ccccc43)C2CC1C(=COC)C(=O)OC (centres unmarked) [RHY-44] | higher potency on EphA4 inhibition |
| CC[C@H]1CN2CC[C@]3(C(=O)N(CCCCCCCOC(=O)c4cc(OC)ccc4[N+](=O)[O-])c4ccccc43)[C@@H]2C[C@@H]1/C(=C\OC)C(=O)OC [RHY-45] | more potent; also recorded: higher potency on EphA4 inhibition than Rhy |
| CC[C@H]1CN2CC[C@]3(C(=O)N(CCCCCCCOc4ccc(O)cc4)c4ccccc43)[C@@H]2C[C@@H]1/C(=C\OC)C(=O)OC [RHY-48] | comparable potency to Rhy |
| CCC1CN2CCC3(C(=O)N(CCCCCCCCOc4ccc(OCc5ccccc5)cc4)c4ccccc43)C2CC1C(=COC)C(=O)OC (centres unmarked) [RHY-49] | higher potency on EphA4 inhibition |
| CC[C@H]1CN2CC[C@]3(C(=O)N(CCCCCCCCOC(=O)c4cc(OC)ccc4[N+](=O)[O-])c4ccccc43)[C@@H]2C[C@@H]1/C(=C\OC)C(=O)OC [RHY-50] | more potent; also recorded: higher potency on EphA4 inhibition than Rhy |
| CCC1CN2CCC3(C(=O)N(CCCCCCCCOC(=O)c4ccc(Br)cc4I)c4ccccc43)C2CC1C(=COC)C(=O)OC (centres unmarked) [RHY-52] | More Potent Effect on EphA4 Inhibition than Rhy |
| CCC1CN2CCC3(C(=O)N(CCCCCCCCOc4ccc(O)cc4)c4ccccc43)C2CC1C(=COC)C(=O)OC (centres unmarked) [RHY-54] | significantly more potent than Rhy; also recorded: more potent effect on EphA4 inhibition than Rhy |
| CCC1CN2CCC3(C(=O)N(CCCCCCCCCOc4ccc(OCc5ccccc5)cc4)c4ccccc43)C2CC1C(=COC)C(=O)OC (centres unmarked) [RHY-55] | higher potency on EphA4 inhibition |
| CCC1CN2CCC3(C(=O)N(CCCCCCCCCOC(=O)C=Cc4ccc(OC)cc4)c4ccccc43)C2CC1C(=COC)C(=O)OC (centres unmarked) [RHY-59] | more potent; also recorded: higher potency on EphA4 inhibition than Rhy |
| CCC1CN2CCC3(C(=O)N(CCCCCCCCCOc4ccc(O)cc4)c4ccccc43)C2CC1C(=COC)C(=O)OC (centres unmarked) [RHY-60] | more potent effect on EphA4 inhibition than Rhy |

Same assay, conditions: 30 μM, 20 min pretreatment, then ephrin-A1 40 min; some sentences add 'when compared to Rhy'

| SMILES | reduction of ephrin-A1-induced EphA4 clustering |
| --- | --- |
| CC[C@H]1CN2CC[C@]3(C(=O)N(CCCCCCCCCl)c4ccccc43)[C@@H]2C[C@@H]1/C(=C\OC)C(=O)OC [RHY-26] | ~80% |

Same assay, conditions: 30 μM; listed as RHY60

| SMILES | potency on EphA4 inhibition (EphA4 clusters) compared to Rhy (words) |
| --- | --- |
| CCC1CN2CCC3(C(=O)N(CCCCCCCCCOc4ccc(O)cc4)c4ccccc43)C2CC1C(=COC)C(=O)OC (centres unmarked) [RHY-60] | significantly more potent than Rhy |

Same assay, conditions: 50 μM

| SMILES | inhibitory effect on EphA4 cluster formation | potency on EphA4 inhibition (EphA4 clusters) compared to Rhy (words) |
| --- | --- | --- |
| CCC1CN2CCC3(C(=O)N(CC=Cc4ccccc4)c4ccccc43)C2CC1C(=COC)C(=O)OC (centres unmarked) [RHY-9] | most significant | significantly reduced the EphA4 clusters compared to Rhy |
| CCC1CN2CCC3(C(=O)N(Cc4ccccc4-c4ccccc4)c4ccccc43)C2CC1C(=COC)C(=O)OC (centres unmarked) [RHY-10] | most significant | significantly reduced the EphA4 clusters compared to Rhy |
| C=CCN1C(=O)C2(CCN3CC(CC)C(C(=COC)C(=O)OC)CC32)c2ccccc21 (centres unmarked) [RHY-17] | most significant | significantly reduced the EphA4 clusters compared to Rhy |
| CCC1CN2CCC3(C(=O)N(Cc4cccc(Cl)c4)c4ccccc43)C2CC1C(=COC)C(=O)OC (centres unmarked) [RHY-19] | most significant | significantly reduced the EphA4 clusters compared to Rhy |
| CCC1CN2CCC3(C(=O)N(CC(=O)c4ccc(OC)cc4)c4ccccc43)C2CC1C(=COC)C(=O)OC (centres unmarked) [RHY-28] | most significant | significantly reduced the EphA4 clusters compared to Rhy |
| CCC1CN2CCC3(C(=O)N(CCCCCCCCCNCCCCCCN)c4ccccc43)C2CC1C(=COC)C(=O)OC (centres unmarked) [RHY-32] | – | higher potency on EphA4 inhibition |
| CCC1CN2CCC3(C(=O)N(CCCCCCOC(=O)c4ccc(OC)c(OC)c4)c4ccccc43)C2CC1C(=COC)C(=O)OC (centres unmarked) [RHY-33] | – | comparable potency as Rhy |
| CC[C@H]1CN2CC[C@]3(C(=O)N(CCCCCCCCOC(=O)c4ccc(OC)c(OC)c4)c4ccccc43)[C@@H]2C[C@@H]1/C(=C\OC)C(=O)OC [RHY-36] | – | more potent activity than Rhy; also recorded: more potent effect on EphA4 inhibition than Rhy |
| CCC1CN2CCC3(C(=O)N(CCCCCCCOC(=O)c4ccc(OC)c(OC)c4)c4ccccc43)C2CC1C(=COC)C(=O)OC (centres unmarked) [RHY-38] | – | more potent activity than Rhy; also recorded: more potent effect on EphA4 inhibition than Rhy |
| CCC1CN2CCC3(C(=O)N(CCCCCCNCCN4CCCC4)c4ccccc43)C2CC1C(=COC)C(=O)OC (centres unmarked) [RHY-41] | – | higher potency on EphA4 inhibition |
| CC[C@H]1CN2CC[C@]3(C(=O)N(CCCCCCCNCCN4CCCC4)c4ccccc43)[C@@H]2C[C@@H]1/C(=C\OC)C(=O)OC [RHY-46] | – | higher potency on EphA4 inhibition |
| CCC1CN2CCC3(C(=O)N(CCCCCCCNCCCn4ccnc4)c4ccccc43)C2CC1C(=COC)C(=O)OC (centres unmarked) [RHY-47] | – | higher potency on EphA4 inhibition |
| CCC1CN2CCC3(C(=O)N(CCCCCCCCCOC(=O)c4ccc(OC)c(OC)c4)c4ccccc43)C2CC1C(=COC)C(=O)OC (centres unmarked) [RHY-57] | – | more potent activity than Rhy; also recorded: more potent effect on EphA4 inhibition than Rhy |

Same assay, conditions: dose-dependent experiment, FIG. 17

| SMILES | inhibitory effect on EphA4 clusters (potency) compared to Rhy |
| --- | --- |
| CC[C@H]1CN2CC[C@]3(C(=O)N(CCCCCCCCCl)c4ccccc43)[C@@H]2C[C@@H]1/C(=C\OC)C(=O)OC [RHY-26] | 5 fold |
| CC[C@H]1CN2CC[C@]3(C(=O)N(CCCCCCCCOc4ccc(OC)c(OC)c4)c4ccccc43)[C@@H]2C[C@@H]1/C(=C\OC)C(=O)OC [RHY-37] | 12 fold |

Same assay, conditions: same assay system; no data given

| SMILES | potency as EphA4 inhibitor |
| --- | --- |
| CCC1CN2CCC3(C(=O)N(CCCCCCCCNCCN4CCCC4)c4ccccc43)C2CC1C(=COC)C(=O)OC (centres unmarked) [RHY-53] | tested and verified |
| CCC1CN2CCC3(C(=O)N(CCCCl)c4ccccc43)C2CC1C(=COC)C(=O)OC (centres unmarked) [RHY-61] | tested and verified |
| CCC1CN2CCC3(C(=O)N(CCCCCCCCCCl)c4ccccc43)C2CC1C(=COC)C(=O)OC (centres unmarked) [RHY-62] | tested and verified |
| CCC1CN2CCC3(C(=O)N(CCCCCCCl)c4ccccc43)C2CC1C(=COC)C(=O)OC (centres unmarked) [RHY-63] | tested and verified |
| CCC1CN2CCC3(C(=O)N(CCCCCCCCl)c4ccccc43)C2CC1C(=COC)C(=O)OC (centres unmarked) [RHY-64] | tested and verified |
| CCC1CN2CCC3(C(=O)N(CCCCCCCCCCCl)c4ccccc43)C2CC1C(=COC)C(=O)OC (centres unmarked) [RHY-65] | tested and verified |
| CCC1CN2CCC3(C(=O)N(CCCCCCCCCCCCl)c4ccccc43)C2CC1C(=COC)C(=O)OC (centres unmarked) [RHY-66] | tested and verified |
| CCC1CN2CCC3(C(=O)N(CCCCCCCCCCCCCl)c4ccccc43)C2CC1C(=COC)C(=O)OC (centres unmarked) [RHY-67] | tested and verified |
